According to ChEMBL document CHEMBL4152314, “Symmetrical and unsymmetrical substituted 2,5-diarylidene cyclohexanones as anti-parasitic compounds” (Eur J Med Chem, 2018):

Key:
Trypanosoma cruzi [1] = test: Antiparasitic activity against epimastigote form of Trypanosoma cruzi Y assessed as parasite growth inhibition after 96 hrs by Neubauer hemocytometer; assay type: functional, organism-based
Trypanosoma cruzi [2] = test: Antiparasitic activity against trypomastigote form of Trypanosoma cruzi assessed as parasite lysis after 24 hrs by Pizzi-Brener method; assay type: functional, organism-based
Leishmania amazonensis = test: Antiparasitic activity against promastigote form of Leishmania amazonensis MHOM/BR/Josefa assessed as parasite growth inhibition after 72 hrs by Neubauer hemocytometer; assay type: functional, organism-based
[3] = Cytotoxicity against African green monkey Vero cells assessed as growth inhibition; assay type: cell-based; settings: chlorocebus sabaeus
[4] = Selectivity index, ratio of CC50 for African green monkey Vero cells to EC50 for trypomastigote form of Trypanosoma cruzi; assay type: toxicity; settings: read-out: Ratio CC50/EC50
[5] = Selectivity index, ratio of CC50 for African green monkey Vero cells to IC50 for promastigote form of Leishmania amazonensis MHOM/BR/Josefa; assay type: toxicity; settings: read-out: Ratio CC50/IC50
[6] = Selectivity index, ratio of CC50 for African green monkey Vero cells to IC50 for epimastigote form of Trypanosoma cruzi Y; assay type: toxicity; settings: read-out: Ratio CC50/IC50

| IC50 (Trypanosoma cruzi [1]) [µM] | EC50 (Trypanosoma cruzi [2]) [µM] | SMILES | IC50 (Leishmania amazonensis) [µM] | CC50 [3] [µM] | selectivity ratio [4] | selectivity ratio [5] | selectivity ratio [6] |
| --- | --- | --- | --- | --- | --- | --- | --- |
| > 100 | 78 | O=C1/C(=C/c2ccc3c(c2)OCO3)CCC/C1=C\c1ccc2c(c1)OCO2 | 22 | 257 | 3.3 | 11.7 | – |
| > 100 | > 100 | COc1ccc(/C=C2\CCC/C(=C\c3ccc([N+](=O)[O-])cc3)C2=O)cc1 | > 100 | 435 | – | – | – |
| 54.8 | > 100 | COc1ccc(/C=C2\CCCCC2=O)cc1 | 54 | 194 | – | 3.6 | 3.5 |
| 33.3 | 27.7 | COc1cccc(/C=C2\CCC/C(=C\c3ccc([N+](=O)[O-])cc3)C2=O)c1OC | 3.9 | < 10 | – | – | – |
| 9.5 | 69.5 | COc1cc(/C=C2\CCC/C(=C\c3cc(OC)c(OC)c(OC)c3)C2=O)cc(OC)c1OC | 17 | 155 | 2.2 | 9.1 | 16.3 |
| 20.5 | 54.2 | COc1ccc(/C=C2\CCC/C(=C\c3c(Cl)cccc3Cl)C2=O)cc1 | 5.2 | 232 | 4.3 | 44.6 | 11.3 |
| 33 | 72 | COc1cccc(/C=C2\CCC/C(=C\c3cccc(Br)c3)C2=O)c1OC | 19.8 | 31.5 | 0.4 | 1.6 | 1 |
| 26.1 | 82 | COc1cccc(/C=C2\CCC/C(=C\C(C)Cc3ccc4c(c3)OCO4)C2=O)c1OC (stereo not drawn) | 10 | 178 | 2.2 | 17.8 | 6.8 |
| > 100 | > 100 | COc1cccc(/C=C2\CCCCC2=O)c1OC | > 100 | 720 | – | – | – |
| 20.6 | > 100 | COc1ccc(/C=C2\CCC/C(=C\c3ccccc3)C2=O)cc1 | 11.8 | 291 | – | 24.6 | 14.1 |
| 21 | > 100 | COc1ccc(/C=C2\CCC/C(=C\c3ccc(F)cc3)C2=O)cc1 | 10.8 | 378 | – | 35 | 18 |
| 3 | 30.2 | COc1cccc(/C=C2\CCC/C(=C\c3cc(OC)c(OC)c(OC)c3)C2=O)c1OC | 2.6 | 29.3 | 1 | 11.3 | 9.8 |
| 5.2 | 27.4 | COc1ccc(/C=C2\CCC/C(=C\c3cccc(OC)c3OC)C2=O)cc1 | 8.9 | 401 | 14.6 | 45.1 | 77.2 |
| 25.8 | 60 | COc1cccc(/C=C2\CCC/C(=C\c3ccccc3)C2=O)c1OC | 16.7 | 33.5 | 0.6 | 2 | 1.3 |
| 55 | > 100 | COc1ccc(/C=C2\CCC/C(=C\c3ccc(Br)cc3)C2=O)cc1 | 17.3 | 250 | – | 14.5 | 4.5 |
| 83.9 | 93.5 | O=C1/C(=C/c2c(Cl)cccc2Cl)CCC/C1=C\c1c(Cl)cccc1Cl | 4.9 | 574 | 6.1 | 117 | 6.8 |
| 21.6 | > 100 | COc1ccc(/C=C2\CCC/C(=C\c3ccc(Cl)cc3)C2=O)cc1 | 17.8 | 401 | – | 22.5 | 18.6 |
| 28.5 | 23.8 | COc1ccc(/C=C2\CCC/C(=C\c3cccc(OC)c3OC)C2=O)cc1OC | 4.5 | 36.1 | 1.5 | 8 | 1.3 |

| IC50 (Trypanosoma cruzi [1]) [µM] | EC50 (Trypanosoma cruzi [2]) [µM] | SMILES | IC50 (Leishmania amazonensis) [µM] | CC50 [3] [µM] | selectivity ratio [4] | selectivity ratio [5] | selectivity ratio [6] |
| --- | --- | --- | --- | --- | --- | --- | --- |
| 24.4 | 70.2 | COc1cccc(/C=C2\CCC/C(=C\c3ccc(F)cc3)C2=O)c1OC | 4.7 | 33.2 | 0.5 | 7.1 | 1.4 |
| > 100 | > 100 | COc1ccc(/C=C2\CCC/C(=C\c3ccc(N(C)C)cc3)C2=O)cc1 | 91 | 392 | – | 4.3 | – |
| 35 | 77 | COc1cccc(/C=C2\CCC/C(=C\c3ccc(Br)cc3)C2=O)c1OC | 20.1 | 31.5 | 0.4 | 1.6 | 0.9 |
| 26.5 | > 100 | COc1cc([N+](=O)[O-])ccc1/C=C1\CCC/C(=C\c2cccc(OC)c2OC)C1=O | 4.8 | 120 | – | 25 | 4.5 |
| 26.6 | > 100 | COc1ccc(/C=C2\CCC/C(=C\c3ccccc3Cl)C2=O)cc1 | 13 | 238 | – | 18.3 | 8.9 |
| 20.2 | > 100 | COc1ccc(/C=C2\CCC/C(=C\c3cccc(Br)c3)C2=O)cc1 | 5.7 | 30 | – | 5.3 | 1.5 |
| 13.6 | > 100 | COc1ccc(/C=C2\CCC/C(=C\c3ccccc3F)C2=O)cc1 | 9 | 270 | – | 29.9 | 19.8 |
| 26.2 | 35 | COc1cccc(/C=C2\CCC/C(=C\c3c(Cl)cccc3Cl)C2=O)c1OC | 3.7 | 160 | 4.6 | 43.3 | 6.1 |
| 16.2 | 85.3 | O=C1/C(=C/c2ccc(Cl)cc2)CCC/C1=C\c1ccc(Cl)cc1 | 3.6 | 32.1 | 0.4 | 8.9 | 2 |
| 29.3 | 49 | O=C1/C(=C/c2ccc(Br)cc2)CCC/C1=C\c1ccc(Br)cc1 | 4.2 | 58 | 1.2 | 13.8 | 2 |
| 33.3 | 63.2 | O=C1/C(=C/c2cccc(Br)c2)CCC/C1=C\c1cccc(Br)c1 | 2.3 | 35.9 | 0.6 | 15.6 | 1.1 |
| 23.6 | 27 | COc1cccc(/C=C2\CCC/C(=C\c3cccc(OC)c3OC)C2=O)c1OC | 4.1 | 24.9 | 0.9 | 6.1 | 1.1 |
| 24.7 | 68.7 | O=C1/C(=C/c2ccc(F)cc2)CCC/C1=C\c1ccc(F)cc1 | 4.3 | 34.4 | 0.5 | 8 | 1.4 |
| 27.8 | 36.2 | O=C1/C(=C/c2ccccc2Cl)CCC/C1=C\c1ccccc1Cl | 4.6 | 30.6 | 0.8 | 6.7 | 1.1 |
| 63.6 | > 100 | COc1ccc(/C=C2\CCC/C(=C\c3ccc(OC)cc3)C2=O)cc1 | 33.3 | 178 | – | 5.3 | 2.8 |
| 18.4 | 76.2 | O=C1/C(=C/c2ccccc2)CCC/C1=C\c1ccccc1 [2,6-DIBENZYLIDENECYCLOHEXANONE] | 2.8 | 40.6 | 0.5 | 14.5 | 2.2 |
| 67.3 | 15 | COc1cc(/C=C/C(=O)CC(=O)/C=C/c2ccc(O)c(OC)c2)ccc1O [CURCUMIN] | > 100 | 36.8 | 2.5 | – | 0.5 |

| SMILES | IC50 (Trypanosoma cruzi [1]) [µM] | EC50 (Trypanosoma cruzi [2]) [µM] | IC50 (Leishmania amazonensis) [µM] | CC50 [3] [µM] | selectivity ratio [4] | selectivity ratio [5] | selectivity ratio [6] |
| --- | --- | --- | --- | --- | --- | --- | --- |
| O=C(Cn1ccnc1[N+](=O)[O-])NCc1ccccc1 [BENZNIDAZOLE] | 6.5 | – | – | – | – | – | – |
